Data published in patent US20110171172A1, “COMPOUNDS FOR INHIBITING KSP KINESIN ACTIVITY” (priority 2007, published 2011).

Tested on: HCT116 colon cancer cells
Assay: KSP cellular assay (phospho-histone H3 / MPM2 immunofluorescence)
Type: cell-based
Conditions: Homo sapiens, HCT-116, 16 hours with drug, percent of cells staining positive for Phos-Histone H3 (ser10) / Phos-MPM2
Procedure: HCT116 colon cancer cells were grown in DMEM:F12 media with 10% heat inactivated FBS at 37 degrees with 5% CO2. Cells were plated at 7,500 cells per well in PDL coated 384-well tissue culture plates. 6 hours later media was removed and new media containing drug was added. Cells were incubated with drug for 16 hours. All further steps were performed at room temperature in the dark. Cells were fixed with 25 ul/well Prefer fixation solution plus 250 nM Hoechst dye and incubated for 30 minutes. The fixation solution was removed and cells were washed with PBS. Cells were then permeabilized with 25 uliwell 0.2% Triton-X in PBS and incubated for 10 minutes. Cells were washed with PBS and then incubated with 25 ul/well PBS containing 3% FBS for 30 minutes. Cells were then stained overnight at 4 degrees with 25 uliwell antibody solution in PBS plus 3% FBS. Antibodies used were Phos-Histone H3 (ser10)-Alexa Flur 488 Conjugate and Phos-MPM2 Texas Red Conjugate. Cells were washed with PBS and then immunofluorescence images captured with HT Pathway microscope. The percent of cells staining positive was calculated and EC50 values for the compounds of the invention that were tested were determined using Excel XLfit.
EC50 Determinations: Dose-response curves were plotted from inhibition data generated each in duplicate, from 8 point serial dilutions of inhibitory compounds. Concentration of compound was plotted against enzyme activity (OD reading). To generate EC50 values, the dose-response curves were then fitted to a standard sigmoidal curve and EC50 values were derived by nonlinear regression analysis.

| Structure (SMILES) | EC50 [nM] |
| --- | --- |
| CC(=O)N1N=C(c2cc(F)ccc2F)OC12COc1ccccc12 (centres unmarked) [compound 104] | > 1000 |
| CC(=O)N1N=C(c2cc(F)ccc2F)OC12CCCc1ccccc12 (centres unmarked) [compound 103] | > 1000 |
| CC(=O)N1N=C(c2cc(F)ccc2F)OC12CCSc1ccccc12 (centres unmarked) [compound 102] | > 1000 |
| CC(=O)N1N=C(c2cc(F)ccc2F)OC12CCCc1sccc12 (centres unmarked) [compound 101] | > 1000 |
| CC(=O)N1N=C(c2cc(F)ccc2F)OC12CCOc1ccccc12 (centres unmarked) [compound 105] | > 1000 |
